Experimental data as given in publication PMC10449633 (Nature Chemical Biology, 2023).
pIC50: −log10 of the molar value. Where two headings read alike, the source gives them in different places. Square brackets hold non-standard residues; d marks the D form. Peptide text beside a SMILES is read from it. NMeTrp(1-(4-Br-benzyl)) = CN[C@@H](Cc1cn(Cc2ccc(Br)cc2)c2ccccc12)C(=O)O; Butanoyl(2R-oxy,4-CN) = N#CCC[C@@H](O)C(=O)O; Abu(4,4,4-F3) = N[C@@H](CC(F)(F)F)C(=O)O; NMeL = CN[C@@H](CC(C)C)C(=O)O; NMeA = CN[C@@H](C)C(=O)O

Biological target: T1, Sec61 (Homo sapiens, UniProt P61619)
T1 construct: endogenous in cells
Assay: signal peptide-GLuc (SP-GLuc) reporter panel, 89 constructs
Type: cell-based
Conditions: read-out: IC50
Excerpt: The heat map depicts IC50 values calculated from each SP-GLuc dose–response curve. d, Arthritis was induced in BALB/c mice with antibodies specific for type II collagen (mAb) on day 0 and endotoxin on day 3. On day 4, when the disease was present in all animals, mice were randomized and treated for 2 weeks with thrice weekly (QODx3) or weekly (QW) intravenous administration of vehicle or KZR-8445 or intraperitoneal administration of dexamethasone. Clinical scores (0–4 per paw; n = 10 per group) and body weights were followed until day 14. Data are presented as mean values ± s.d. mAb, monoclonal antibody. Source data
To investigate the effects of KZR-8445 on secretory and membrane protein biogenesis and to establish Sec61α as the relevant target, we quantified the secretion of a doxycycline-inducible Gaussia luciferase (GLuc) reporter fused to the C-terminus of two full-length pro-inflammatory cytokines, interleukin-2 (IL-2) (which contains a cleavable signal peptide) and tumor necrosis factor-alpha (TNFα) (which contains an N-terminal transmembrane anchor). […] KZR-8445 is structurally related to CT8, which discriminates among Sec61 clients based largely on their N-terminal signal peptide. […] We also directly compared KZR-8445 to mycolactone A/B, a structurally distinct and relatively client-nonselective Sec61 inhibitor[8],[25], for their ability to discriminate between vascular cell adhesion molecule (VCAM) and preprolactin (pPL) signal peptides.

T1 sequence (P61619 whole entry): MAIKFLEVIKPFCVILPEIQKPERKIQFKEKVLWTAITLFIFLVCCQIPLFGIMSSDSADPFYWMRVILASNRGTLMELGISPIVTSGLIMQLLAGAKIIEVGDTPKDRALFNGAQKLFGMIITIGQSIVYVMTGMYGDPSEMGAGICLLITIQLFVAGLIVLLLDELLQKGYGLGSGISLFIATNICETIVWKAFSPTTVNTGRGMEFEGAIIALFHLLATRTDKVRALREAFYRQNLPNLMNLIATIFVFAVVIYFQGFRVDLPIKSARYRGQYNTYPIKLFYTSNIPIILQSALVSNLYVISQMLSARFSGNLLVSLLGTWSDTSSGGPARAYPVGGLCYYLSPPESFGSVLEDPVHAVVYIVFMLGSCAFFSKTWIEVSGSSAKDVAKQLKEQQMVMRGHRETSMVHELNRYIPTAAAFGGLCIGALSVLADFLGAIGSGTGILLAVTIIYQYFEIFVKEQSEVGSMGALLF
T1 sequence (P60059 whole entry, further chain): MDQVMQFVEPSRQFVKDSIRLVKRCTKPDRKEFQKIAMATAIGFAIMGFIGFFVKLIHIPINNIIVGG
T1 sequence (P60468 whole entry, further chain): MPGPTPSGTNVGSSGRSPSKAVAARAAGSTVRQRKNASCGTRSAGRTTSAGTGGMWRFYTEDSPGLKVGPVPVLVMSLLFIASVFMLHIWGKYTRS

With `CC(C)C[C@@H]1NC(=O)[C@H](Cc2cn(Cc3ccc(Br)cc3)c3ccccc23)N(C)C(=O)[C@H](CC(F)(F)F)NC(=O)[C@H](CC(C)C)N(C)C(=O)[C@H](CC(F)(F)F)NC(=O)[C@@H](CCC#N)OC(=O)[C@H](C)N(C)C1=O` [KZR-0508445] (cyclo(L[NMeA][Butanoyl(2R-oxy,4-CN)][Abu(4,4,4-F3)][NMeL][Abu(4,4,4-F3)][NMeTrp(1-(4-Br-benzyl))])) the pIC50 (F3 signal peptide-GLuc reporter) was 6.79, the pIC50 (FGF23 signal peptide-GLuc reporter) was 7.55 and the pIC50 (FLT3 signal peptide-GLuc reporter) was 6.44. The pIC50 (FNDC10 signal peptide-GLuc reporter) was 6.14, the pIC50 (FURIN signal peptide-GLuc reporter) was 5.32 and the pIC50 (GAS6 signal peptide-GLuc reporter) was 6.93. It also gave a pIC50 (HJV signal peptide-GLuc reporter) of 6.37, a pIC50 (HLA-G signal peptide-GLuc reporter) of 7.41 and a pIC50 (HSPA13 signal peptide-GLuc reporter) of 5.96. It also gave a pIC50 (IGF1R signal peptide-GLuc reporter) of 6.09, a pIC50 (IL1RAP signal peptide-GLuc reporter) of 6.99 and a pIC50 (IL4R signal peptide-GLuc reporter) of 7.49. The pIC50 (IL4 signal peptide-GLuc reporter) was 6.44, the pIC50 (IL5RA signal peptide-GLuc reporter) was 5.88 and the pIC50 (IL5 signal peptide-GLuc reporter) was 5.89. The pIC50 (IL6R signal peptide-GLuc reporter) was 7.03, the pIC50 (IL6ST signal peptide-GLuc reporter) was 7.25 and the pIC50 (IL6 signal peptide-GLuc reporter) was 6.81. The pIC50 (IL7 signal peptide-GLuc reporter) was 8.28, the pIC50 (IL10 signal peptide-GLuc reporter) was 6.36 and the pIC50 (IL11 signal peptide-GLuc reporter) was 6.74. For the same compound, the pIC50 (IL12B signal peptide-GLuc reporter) was 6.96, the pIC50 (IL12RB1 signal peptide-GLuc reporter) was 7.19 and the pIC50 (IL13 signal peptide-GLuc reporter) was 7.23. The pIC50 (IL15RA signal peptide-GLuc reporter) was 6.53, the pIC50 (IL15 signal peptide-GLuc reporter) was 6.94 and the pIC50 (IL17A signal peptide-GLuc reporter) was 6.50. The pIC50 (IL17F signal peptide-GLuc reporter) was 6.64, the pIC50 (IL17RA signal peptide-GLuc reporter) was 6.39 and the pIC50 (IL23A signal peptide-GLuc reporter) was 6.37. It also gave a pIC50 (IL23R signal peptide-GLuc reporter) of 6.44, a pIC50 (ITGA3 signal peptide-GLuc reporter) of 4.74 and a pIC50 (ITGB3 signal peptide-GLuc reporter) of 6.97. It also gave a pIC50 (ITGB5 signal peptide-GLuc reporter) of 7.05, a pIC50 (ITGB7 signal peptide-GLuc reporter) of 6.64 and a pIC50 (JTB signal peptide-GLuc reporter) of 7.59. The pIC50 (KRTDAP signal peptide-GLuc reporter) was 6.24, the pIC50 (LCN6 signal peptide-GLuc reporter) was 7.00 and the pIC50 (LDLR signal peptide-GLuc reporter) was 6.10. For the same compound, the pIC50 (LILRB2 signal peptide-GLuc reporter) was 5.76, the pIC50 (LRP8 signal peptide-GLuc reporter) was 6.17 and the pIC50 (MASP2 signal peptide-GLuc reporter) was 6.90. The pIC50 (METTL7A signal peptide-GLuc reporter) was 5.16, the pIC50 (NGF signal peptide-GLuc reporter) was 6.46 and the pIC50 (P3H1 signal peptide-GLuc reporter) was 7.14. It also gave a pIC50 (PCDHA4 signal peptide-GLuc reporter) of 6.31, a pIC50 (PCSK9 signal peptide-GLuc reporter) of 5.89 and a pIC50 (PDCD1 signal peptide-GLuc reporter) of 7.43. It also gave a pIC50 (PRKCSH signal peptide-GLuc reporter) of 6.73, a pIC50 (PSG8 signal peptide-GLuc reporter) of 6.53 and a pIC50 (SIRPA signal peptide-GLuc reporter) of 5.69. For the same compound, the pIC50 (SSR2 signal peptide-GLuc reporter) was 6.86, the pIC50 (STAB1 signal peptide-GLuc reporter) was 6.17 and the pIC50 (SUCO signal peptide-GLuc reporter) was 5.84. It also gave a pIC50 (TGFB1 signal peptide-GLuc reporter) of 5.66, a pIC50 (TGFB2 signal peptide-GLuc reporter) of 6.73 and a pIC50 (TGFBR1 signal peptide-GLuc reporter) of 6.87. It also gave a pIC50 (TIGIT signal peptide-GLuc reporter) of 6.23, a pIC50 (TMED10 signal peptide-GLuc reporter) of 6.34 and a pIC50 (UCN signal peptide-GLuc reporter) of 5.23.
